Measurements from PubChem BioAssay (NCI).
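Here, GI50 denotes the concentration required for 50% inhibition of growth. TGI marks complete inhibition of growth.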

Assays:
Experiment in all cases: NCI anticancer screen, dose series, 384-well format
SF-268 CNS = system: SF-268 CNS
SN12C renal = system: SN12C renal
BT-549 breast = system: BT-549 breast
OVCAR-3 ovarian = system: OVCAR-3 ovarian
NCI-H460 NSCLC = system: NCI-H460 NSCLC
RPMI-8226 leukemia = system: RPMI-8226 leukemia
SR leukemia = system: SR leukemia
OVCAR-4 ovarian = system: OVCAR-4 ovarian
OVCAR-8 ovarian = system: OVCAR-8 ovarian
NCI-H23 lung = system: NCI-H23 lung
CAKI-1 renal = system: CAKI-1 renal
HT29 colon = system: HT29 colon
HCT-116 colon = system: HCT-116 colon
SK-MEL-28 melanoma = system: SK-MEL-28 melanoma
NCI-H322M lung = system: NCI-H322M lung
SW-620 colon = system: SW-620 colon
A549 NSCLC = system: A549 NSCLC
MDA-MB-468 breast = system: MDA-MB-468 breast
EKVX NSCLC = system: EKVX NSCLC
HOP-92 NSCLC = system: HOP-92 NSCLC
SF-539 CNS = system: SF-539 CNS
RXF 393 renal = system: RXF 393 renal
UO-31 renal = system: UO-31 renal
HOP-62 NSCLC = system: HOP-62 NSCLC
MDA-MB-435 melanoma = system: MDA-MB-435 melanoma
CCRF-CEM leukemia = system: CCRF-CEM leukemia
NCI/ADR-RES ovarian = system: NCI/ADR-RES ovarian
A498 renal = system: A498 renal
SNB-75 CNS = system: SNB-75 CNS
TK-10 renal = system: TK-10 renal
ACHN renal = system: ACHN renal
SK-OV-3 ovarian = system: SK-OV-3 ovarian
SNB-19 CNS = system: SNB-19 CNS
HS 578T breast = system: HS 578T breast
PC-3 prostate = system: PC-3 prostate
MDA-MB-231 breast = system: MDA-MB-231 breast
OVCAR-5 ovarian = system: OVCAR-5 ovarian
NCI-H522 lung = system: NCI-H522 lung
MOLT-4 leukemia = system: MOLT-4 leukemia
NCI-H226 lung = system: NCI-H226 lung
HL-60(TB) leukemia = system: HL-60(TB) leukemia
KM12 colon = system: KM12 colon
T-47D breast = system: T-47D breast
IGROV1 ovarian = system: IGROV1 ovarian
MCF7 breast = system: MCF7 breast
SF-295 CNS = system: SF-295 CNS
HCC-2998 colon = system: HCC-2998 colon

Cc1ccc(Nc2nc(N)c(C(=O)c3ccc(C#N)cc3)s2)cc1
GI50 (SF-268 CNS): 45.8 nM | TGI (SF-268 CNS): 2520 nM | GI50 (SN12C renal): 348 nM | TGI (SN12C renal): 54600 nM | GI50 (BT-549 breast): 38.2 nM | TGI (BT-549 breast): 1310 nM | GI50 (OVCAR-3 ovarian): 170 nM | TGI (OVCAR-3 ovarian): 414 nM | GI50 (NCI-H460 NSCLC): 178 nM | TGI (NCI-H460 NSCLC): 351 nM | GI50 (RPMI-8226 leukemia): 30.9 nM | TGI (RPMI-8226 leukemia): 112 nM | GI50 (SR leukemia): 18.1 nM | TGI (SR leukemia): 33.4 nM | GI50 (OVCAR-4 ovarian): 385 nM | TGI (OVCAR-4 ovarian): 17800 nM | GI50 (OVCAR-8 ovarian): 86.7 nM | TGI (OVCAR-8 ovarian): 40300 nM | GI50 (NCI-H23 lung): 47.9 nM | TGI (NCI-H23 lung): 1470 nM | GI50 (CAKI-1 renal): 56.6 nM | TGI (CAKI-1 renal): 11200 nM | GI50 (HT29 colon): 34 nM | TGI (HT29 colon): 28200 nM | GI50 (HCT-116 colon): 243 nM | TGI (HCT-116 colon): 976 nM | GI50 (SK-MEL-28 melanoma): 14600 nM | TGI (SK-MEL-28 melanoma): 74900 nM | GI50 (NCI-H322M lung): 481 nM | TGI (NCI-H322M lung): 46400 nM | GI50 (SW-620 colon): 37.3 nM | TGI (SW-620 colon): 13900 nM | GI50 (A549 NSCLC): 247 nM | TGI (A549 NSCLC): > 100000 nM | GI50 (MDA-MB-468 breast): 185 nM | TGI (MDA-MB-468 breast): 352 nM | GI50 (EKVX NSCLC): 58.4 nM | TGI (EKVX NSCLC): 51500 nM | GI50 (HOP-92 NSCLC): 332 nM | TGI (HOP-92 NSCLC): 23300 nM | GI50 (SF-539 CNS): 188 nM | TGI (SF-539 CNS): 393 nM | GI50 (RXF 393 renal): 23.3 nM | TGI (RXF 393 renal): 51.2 nM | GI50 (UO-31 renal): 69 nM | TGI (UO-31 renal): 1720 nM | GI50 (HOP-62 NSCLC): 38.6 nM | TGI (HOP-62 NSCLC): 3610 nM | GI50 (MDA-MB-435 melanoma): 41.9 nM | TGI (MDA-MB-435 melanoma): 151 nM | GI50 (CCRF-CEM leukemia): 170 nM | TGI (CCRF-CEM leukemia): 310 nM | GI50 (NCI/ADR-RES ovarian): 28.7 nM | TGI (NCI/ADR-RES ovarian): 69.1 nM | GI50 (A498 renal): 298 nM | TGI (A498 renal): 16400 nM | GI50 (SNB-75 CNS): 37 nM | TGI (SNB-75 CNS): 520 nM | GI50 (TK-10 renal): 447 nM | TGI (TK-10 renal): 22200 nM | GI50 (ACHN renal): 72.5 nM | TGI (ACHN renal): 17800 nM | GI50 (SK-OV-3 ovarian): 247 nM | TGI (SK-OV-3 ovarian): 18300 nM | GI50 (SNB-19 CNS): 325 nM | TGI (SNB-19 CNS): > 100000 nM | GI50 (HS 578T breast): 22.1 nM | TGI (HS 578T breast): 47.1 nM | GI50 (PC-3 prostate): 47.6 nM | TGI (PC-3 prostate): > 100000 nM | GI50 (MDA-MB-231 breast): 202 nM | TGI (MDA-MB-231 breast): 35800 nM | GI50 (OVCAR-5 ovarian): 1460 nM | TGI (OVCAR-5 ovarian): 55100 nM | GI50 (NCI-H522 lung): 121 nM | TGI (NCI-H522 lung): 292 nM | GI50 (MOLT-4 leukemia): 128 nM | TGI (MOLT-4 leukemia): 256 nM | GI50 (NCI-H226 lung): 39.3 nM | TGI (NCI-H226 lung): 2070 nM | GI50 (HL-60(TB) leukemia): 19.7 nM | TGI (HL-60(TB) leukemia): 34.7 nM | GI50 (KM12 colon): 42 nM | TGI (KM12 colon): 19900 nM | GI50 (T-47D breast): 743 nM | TGI (T-47D breast): 26300 nM | GI50 (IGROV1 ovarian): 73.2 nM | TGI (IGROV1 ovarian): 15300 nM | GI50 (MCF7 breast): 40.2 nM | TGI (MCF7 breast): 28200 nM | GI50 (SF-295 CNS): 57.8 nM | TGI (SF-295 CNS): 298 nM | GI50 (HCC-2998 colon): 105 nM | TGI (HCC-2998 colon): 572 nM
